The text below walks through data of PMC3742539, “ε Subunit of Bacillus subtilis F1-ATPase Relieves MgADP Inhibition” (PLoS ONE, 2013).

Each structure is given as a SMILES string.

For test [1], the target named is T1, α3β3γε complex of BF1 (F1-ATPase from Bacillus subtilis) (Bacillus subtilis, UniProt P37808+P37809).
T1 construct: gene atpD; recombinant α3β3γ (His6-tag at N-terminus of β, kept) reconstituted with excess separately purified BF1 ε subunit; no δ; E. coli expression; with ATP synthase gamma chain; ATP synthase epsilon chain
Kind of test: residual initial ATPase activity ([…]-4 s) after preincubation with MgADP. The class given is biochemical. As to conditions: read-out: % inhibition at 1:1 MgADP (5 μM).

The target in test [2] is T2, α3β3γ complex of BF1 (F1-ATPase from Bacillus subtilis) (Bacillus subtilis, UniProt P37808+P37809).
T2 construct: gene atpD; recombinant α3β3γ subcomplex without δ and ε; His6-tag at N-terminus of β (kept); initiation codons of α and γ changed to ATG; expressed in E. coli BL21(DE3) from pET21-BF1; nucleotide-free; with ATP synthase gamma chain
Described as above. The class given is biochemical. The conditions noted are these: read-out: % inhibition at 1:1 MgADP (5 μM).

T1 sequence (P37812 whole entry): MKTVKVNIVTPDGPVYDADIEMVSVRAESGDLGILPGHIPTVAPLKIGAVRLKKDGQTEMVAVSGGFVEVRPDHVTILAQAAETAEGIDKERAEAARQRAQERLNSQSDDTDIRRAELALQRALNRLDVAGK
T1 sequence (P37809 whole entry): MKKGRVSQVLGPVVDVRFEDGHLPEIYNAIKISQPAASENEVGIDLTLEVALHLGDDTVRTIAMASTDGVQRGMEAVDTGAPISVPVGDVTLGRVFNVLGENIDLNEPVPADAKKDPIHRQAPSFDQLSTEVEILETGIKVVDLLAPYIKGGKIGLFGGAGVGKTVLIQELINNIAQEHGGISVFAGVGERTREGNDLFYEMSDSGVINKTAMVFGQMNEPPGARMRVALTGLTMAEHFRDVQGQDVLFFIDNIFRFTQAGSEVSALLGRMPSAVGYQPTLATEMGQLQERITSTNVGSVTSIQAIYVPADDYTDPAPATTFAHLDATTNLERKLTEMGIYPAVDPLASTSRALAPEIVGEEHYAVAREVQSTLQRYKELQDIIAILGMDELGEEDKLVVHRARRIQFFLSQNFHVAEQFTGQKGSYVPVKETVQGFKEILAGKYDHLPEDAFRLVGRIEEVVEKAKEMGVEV
T1 sequence (P37808 2-502): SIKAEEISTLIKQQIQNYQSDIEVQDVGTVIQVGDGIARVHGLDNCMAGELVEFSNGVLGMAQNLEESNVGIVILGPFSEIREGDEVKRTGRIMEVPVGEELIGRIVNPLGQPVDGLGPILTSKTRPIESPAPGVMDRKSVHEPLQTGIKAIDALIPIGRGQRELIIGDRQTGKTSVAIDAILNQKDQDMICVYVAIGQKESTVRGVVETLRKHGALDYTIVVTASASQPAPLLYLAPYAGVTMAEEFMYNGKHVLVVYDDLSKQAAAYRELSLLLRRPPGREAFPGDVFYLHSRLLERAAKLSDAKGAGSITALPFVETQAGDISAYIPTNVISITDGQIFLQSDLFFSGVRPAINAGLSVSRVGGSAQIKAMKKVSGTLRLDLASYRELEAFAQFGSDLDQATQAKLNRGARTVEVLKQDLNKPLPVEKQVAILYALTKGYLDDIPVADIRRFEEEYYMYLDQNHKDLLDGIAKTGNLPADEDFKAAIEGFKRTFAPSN
T1 sequence (P37810 whole entry, further chain): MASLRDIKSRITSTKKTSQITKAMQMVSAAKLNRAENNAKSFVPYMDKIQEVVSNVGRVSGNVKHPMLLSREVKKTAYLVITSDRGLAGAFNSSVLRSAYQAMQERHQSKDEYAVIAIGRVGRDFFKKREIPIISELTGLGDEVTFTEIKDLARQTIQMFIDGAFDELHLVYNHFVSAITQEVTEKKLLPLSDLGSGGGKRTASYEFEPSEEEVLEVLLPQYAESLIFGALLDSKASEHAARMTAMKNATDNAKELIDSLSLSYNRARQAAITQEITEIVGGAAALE
T2 sequence (P37809 whole entry): as the sequence (P37809 whole entry) above
T2 sequence (P37808 2-502): as the sequence (P37808 2-502) above
T2 sequence (P37810 whole entry, further chain): as the sequence (P37810 whole entry, further chain) above

Broadly, the inhibition is the share of the control response that was lost under treatment. On to `Nc1ncnc2c1ncn2[C@@H]1O[C@H](COP(=O)(O)OP(=O)(O)O)[C@@H](O)[C@H]1O` [MgADP], for which the inhibition at 5 µM in test [1] was approximately 20%; in test [2], approximately 50%.
